Data on three compounds can be found in patent KR20240014570A, “양전하성 응집-유도 방출 화합물 및 이의 용도” (priority 2020, dated 2022).

In experiment [1] the test system is S.aureus (그람양성, ATCC 25923). Kind of experiment: Photodynamic antibacterial effect, agar plate colonies. The format is cell-based. The following applies: 1 μM; white light 25 mW/cm2, 10 min.
In experiment [2] the test system is Gram-negative bacteria (그람음성균): E.coli, ESBL-EC. Format: cell-based. The following applies: 1 μM; white light 25 mW/cm2, 10 min.
The test system of experiment [3] is all strains (모든 균주). Kind of experiment: Photodynamic antibacterial effect, all strains. Format: cell-based. The note with it: 3 μM, with or without white light.
Experiment [4] deals with ESBL E.coli (ESBL-EC, 그람 음성, ATCC BAA-198). The note with it: same conditions: 3 μM, white light 25 mW/cm2, 10 min.
Experiment [5] shares this test system. Kind of experiment: microbe, parasite or virus in culture. The note with it: Escherichia coli, ATCCBAA198, 10 min, read-out: inhibition of ESBL-EC growth.

With `C=Cc1c(C)c2cc3nc(c(CC(=O)O)c4[nH]c(cc5nc(cc1[nH]2)C(C)=C5CC)c(C)c4C(=O)O)C(CCC(=O)O)C3C` (stereo not shown) [Ce6], the “photodynamic antibacterial activity against Gram-positive bacteria” value in experiment [1] is on record as “광역학적 항균 활성을 보였지만”. Besides, in experiment [2], the “photodynamic antibacterial effect against Gram-negative bacteria” value was “유의한 효과를 확인할 수 없었다”.

As to `C(=Cc1ccnc2ccccc12)c1ccc(-c2ccc(N(c3ccccc3)c3ccccc3)cc2)s1` [DQVTA], in experiment [3], the bacterial colonies entry is on record as “변하지 않음”.

Take `CN(C)c1ccc2nc3ccc(=[N+](C)C)cc-3sc2c1` [MB, 메틸렌 블루]: the photodynamic antibacterial effect result in experiment [4] was “유의한 광역학적 항균 효과를 나타내지 않았고”. In addition, in experiment [5], the inhibition at 3 µM was about 50%. For the same compound, the “photodynamic antibacterial activity against Gram-positive bacteria” value in experiment [1] was “광역학적 항균 활성을 보였지만”. Further, the “photodynamic antibacterial effect against Gram-negative bacteria” value in experiment [2] is on record as “유의한 효과를 확인할 수 없었다”.
